Test results taken from ChEMBL document CHEMBL1201862, “PubChem BioAssay data set” (2004).
Active and inactive are the calls of the source.

Legend:
[1] = Luminescence Cell-Based Dose Confirmation to Identify Activators of 5'UTR Stem-Loop Driven Alpha-Synuclein mRNA Translation in H4 Neuroglioblastoma Cells. [Related pubchem assays: 1829 (Project Summary), 1814 (Primary HTS)]; type: functional
[2] = Luminescence Cell-Based Dose Response to Identify Activators of Luciferase Translation or Activity in H4-C Neuroglioblastoma Cells. [Related pubchem assays: 1829 (Project Summary), 1814 (Primary HTS)]; type: functional
H4 = assay: Luminescence Cell-Based Dose Response HTS to Identify Activators of 5'UTR Stem-Loop Driven Prion Protein mRNA Translation in H4 Neuroglioblastoma Cells. [Related pubchem assays: 1829 (Project Summary), 1814 (Primary HTS)]; type: functional; conditions: Homo sapiens
[3] = Luminescence Cell-Based Dose Response HTS to Identify Activators of Luciferase Translation or Activity in H4 […] Cells. [Related pubchem assays: 1829 (Project Summary), 1814 (Primary HTS)]; type: functional
[4] = Luminescence Cell-Based Dose Response to Identify Activators of 5'UTR Stem-Loop Driven Prion Protein mRNA Translation in H4-C Neuroglioblastoma Cells. [Related pubchem assays: 1829 (Project Summary), 1814 (Primary HTS)]; type: functional
Bcl-2-related protein A1 [5] = biological target: T1, Bcl-2-related protein A1 (Mus musculus, UniProt Q07440); assay: Bfl-1 binding inhibitors, SAR follow-up, biochemical, fluorescence polarization (AID 1070)
T1 sequence (Q07440 whole entry): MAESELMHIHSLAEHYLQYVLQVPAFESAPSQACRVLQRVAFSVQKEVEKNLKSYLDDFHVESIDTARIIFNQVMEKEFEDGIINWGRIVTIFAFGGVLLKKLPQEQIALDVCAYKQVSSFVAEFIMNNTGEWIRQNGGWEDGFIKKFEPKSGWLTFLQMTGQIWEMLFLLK

Bcl-2-related protein A1 [6] = biological target: T1, Bcl-2-related protein A1; assay: Bfl-1 inhibitors blocking BH3 peptide binding, confirmation, biochemical, TR-FRET, mouse Bfl-1 (AID 621);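 also: TR-FRET binding of GST-Bfl-1 to FITC-labelled Bid peptide via terbium antibody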
[7] = biological target: Glyceraldehyde-3-phosphate dehydrogenase (Homo sapiens, UniProt P04406)
Glyceraldehyde-3-phosphate dehydrogenase, sequence (P04406 whole entry): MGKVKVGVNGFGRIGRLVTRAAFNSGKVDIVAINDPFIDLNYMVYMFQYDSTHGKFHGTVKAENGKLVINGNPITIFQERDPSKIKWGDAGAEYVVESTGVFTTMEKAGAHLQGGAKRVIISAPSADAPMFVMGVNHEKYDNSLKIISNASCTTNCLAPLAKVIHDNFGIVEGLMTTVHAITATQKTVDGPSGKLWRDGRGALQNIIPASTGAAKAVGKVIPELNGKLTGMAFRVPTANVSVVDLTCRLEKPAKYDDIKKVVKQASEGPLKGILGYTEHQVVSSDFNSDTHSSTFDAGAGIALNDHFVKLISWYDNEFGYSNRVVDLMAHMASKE

[8] = biological target: Sphingosine 1-phosphate receptor 2 (Homo sapiens, UniProt O95136); assay: Dose Response Cell Based Assay for Agonists of the S1P2 Receptor of Purchased Analogues. [Related pubchem assays: 729, 843, 854, 736 ]; type: functional
Sphingosine 1-phosphate receptor 2, sequence (O95136 whole entry): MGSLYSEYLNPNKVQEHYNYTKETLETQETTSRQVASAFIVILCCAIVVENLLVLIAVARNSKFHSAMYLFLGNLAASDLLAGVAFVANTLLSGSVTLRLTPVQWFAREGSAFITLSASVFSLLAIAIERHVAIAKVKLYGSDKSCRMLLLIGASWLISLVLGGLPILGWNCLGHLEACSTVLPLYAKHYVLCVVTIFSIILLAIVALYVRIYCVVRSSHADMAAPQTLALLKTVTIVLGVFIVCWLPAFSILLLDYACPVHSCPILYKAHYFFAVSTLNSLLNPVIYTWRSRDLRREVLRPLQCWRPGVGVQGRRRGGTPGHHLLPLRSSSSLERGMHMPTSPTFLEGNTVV

[9] = biological target: Voltage-gated inwardly rectifying potassium channel KCNH2 (Homo sapiens, UniProt Q12809); assay: hERG protection from proarrhythmic block, potency, dose response, cell-based, thallium flux (AID 2121); type: ADME
Voltage-gated inwardly rectifying potassium channel KCNH2, sequence (Q12809 whole entry): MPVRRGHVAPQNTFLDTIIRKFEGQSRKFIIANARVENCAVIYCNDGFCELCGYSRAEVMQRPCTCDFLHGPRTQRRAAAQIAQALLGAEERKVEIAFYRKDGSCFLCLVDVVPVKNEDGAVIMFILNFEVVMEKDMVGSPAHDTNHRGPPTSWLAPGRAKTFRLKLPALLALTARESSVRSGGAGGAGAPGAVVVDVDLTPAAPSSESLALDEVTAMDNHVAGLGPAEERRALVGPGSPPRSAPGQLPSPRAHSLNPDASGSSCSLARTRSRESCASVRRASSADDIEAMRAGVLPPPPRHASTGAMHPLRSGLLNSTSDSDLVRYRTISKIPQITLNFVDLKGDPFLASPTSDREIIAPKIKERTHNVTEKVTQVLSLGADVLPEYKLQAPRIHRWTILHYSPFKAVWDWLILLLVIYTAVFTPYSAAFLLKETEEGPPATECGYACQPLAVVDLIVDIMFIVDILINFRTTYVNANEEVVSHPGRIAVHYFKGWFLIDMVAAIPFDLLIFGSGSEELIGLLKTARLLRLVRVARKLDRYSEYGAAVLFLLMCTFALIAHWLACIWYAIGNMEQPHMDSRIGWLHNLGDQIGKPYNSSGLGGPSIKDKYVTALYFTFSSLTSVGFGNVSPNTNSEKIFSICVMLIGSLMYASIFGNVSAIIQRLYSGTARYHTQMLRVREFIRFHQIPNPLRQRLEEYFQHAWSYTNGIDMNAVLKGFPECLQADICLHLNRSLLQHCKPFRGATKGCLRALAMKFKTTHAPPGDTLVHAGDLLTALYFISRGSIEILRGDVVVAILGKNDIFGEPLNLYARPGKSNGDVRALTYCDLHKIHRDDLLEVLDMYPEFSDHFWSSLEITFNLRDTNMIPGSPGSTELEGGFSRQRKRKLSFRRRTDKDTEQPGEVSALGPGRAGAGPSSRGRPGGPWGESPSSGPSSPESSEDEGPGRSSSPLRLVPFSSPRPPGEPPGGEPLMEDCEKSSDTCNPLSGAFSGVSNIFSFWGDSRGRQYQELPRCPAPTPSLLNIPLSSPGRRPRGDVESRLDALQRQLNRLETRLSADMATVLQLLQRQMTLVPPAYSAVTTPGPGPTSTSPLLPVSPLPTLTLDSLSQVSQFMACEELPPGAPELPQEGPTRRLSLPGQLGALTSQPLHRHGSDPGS

Danio rerio = assay: In Vivo Angiogenesis Dose-Response Confirmation. [Related pubchem assays: 732 (Assay preceding this confirmatory assay.)]; type: functional, organism-based
[10] = biological target: T2, Tyrosine-protein phosphatase non-receptor type 7 (Homo sapiens, UniProt P35236); assay: inhibitors of human HePTP phosphatase, […], biochemical, absorbance, leukemia target (AID 521); type: functional
T2 sequence (P35236 whole entry): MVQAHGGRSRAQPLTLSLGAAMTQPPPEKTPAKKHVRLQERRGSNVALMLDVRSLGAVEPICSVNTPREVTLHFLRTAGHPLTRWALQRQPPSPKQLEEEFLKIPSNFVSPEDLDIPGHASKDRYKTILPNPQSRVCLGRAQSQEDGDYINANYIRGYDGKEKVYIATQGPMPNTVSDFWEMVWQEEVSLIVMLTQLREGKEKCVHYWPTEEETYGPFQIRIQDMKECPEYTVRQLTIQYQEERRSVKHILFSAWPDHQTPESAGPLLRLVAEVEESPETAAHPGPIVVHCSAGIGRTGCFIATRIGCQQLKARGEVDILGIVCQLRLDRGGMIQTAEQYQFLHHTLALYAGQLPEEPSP

For `Cc1ccsc1C1NC(=O)c2c(sc3c2CCCC3)N1` (configuration not stated), the EC50 [1] was 0.571 µM (active), the EC50 [2] was 0.643 µM (active) and the EC50 (H4) was 48.3 µM (active). The EC50 [3] was < 0.1 µM (inconclusive) and the EC50 [4] was 1.12 µM (active).
In the case of `O=C1C(Cl)=C(N2CCOCC2)C(=O)N1c1ccc([N+](=O)[O-])cc1`, the IC50 (Bcl-2-related protein A1 [5]) was 1.49 µM (active), the IC50 (Bcl-2-related protein A1 [6]) was 2.29 µM (active) and the IC50 [7] was > 100 µM (not active).
For `Cc1cc(C(=O)CN2C(=O)C(=O)N(Cc3ccccc3)C2=O)c(C)n1Cc1ccc(F)cc1`, the EC50 [8] was > 30 µM (not active).
In the case of `CCc1ccc2nc(NC(=O)c3cc(C)on3)sc2c1`, the EC50 [9] was 11.6 µM (active).
For `O=C1Nc2c(Cl)cc(Cl)cc2/C1=C1/Nc2ccccc2C1=O`, the IC50 (Danio rerio) was 4.24 µM (active).
With `Cc1nc2c(o1)CCc1ccccc1C2O` (configuration not stated) the IC50 [10] was > 100 µM (not active).
